From the CheMixHub ionic liquid set

Experiment: xn = mol fraction of the nth substance listed

COP(=O)([O-])OC.Cn1cc[n+](C)c1 + CN(CCO)CCO + O
Conditions	viscosity [mPa·s]
343.15 K, x2 = 0.4346, x3 = 0.3656	10.65

CC(=O)[O-].CCCC[N+](CCCC)(CCCC)CCCC + CCCCN + O
303.15 K, 100 kPa
Conditions	viscosity [mPa·s]
x2 = 0, x3 = 0.0291	680
x2 = 0.0965, x3 = 0.0347	390
x2 = 0.194, x3 = 0.0301	188
x2 = 0.3198, x3 = 0.031	78
x2 = 0.4873, x3 = 0.0253	28
x2 = 0.6575, x3 = 0.0186	16
x2 = 0.7882, x3 = 0.0148	11
x2 = 0.8893, x3 = 0.0119	9

COP(=O)([O-])OC.Cn1cc[n+](C)c1 + CS(C)=O
viscosity [mPa·s], 101 kPa
Conditions	298.15 K	313.15 K	333.15 K
x1 = 0.1773	7.7	4.8	3.1
x1 = 0.4972	42.7	22.6	11.9
x1 = 0.7978	134.7	59.6	26.7

COP(=O)([O-])OC.Cn1cc[n+](C)c1 + CC(C)O
101 kPa
Conditions	viscosity [mPa·s]
293.15 K, x2 = 0	416
293.15 K, x2 = 0.0999	357
298.15 K, x2 = 0.2032	183
298.15 K, x2 = 0.5002	53.3
298.15 K, x2 = 0.7009	17.98
303.15 K, x2 = 0.5002	43.28
308.15 K, x2 = 0.7009	13.26
308.15 K, x2 = 0.9013	3.819
313.15 K, x2 = 0	119.2
313.15 K, x2 = 0.0999	106.6
313.15 K, x2 = 0.2032	82.2
313.15 K, x2 = 0.301	63.1
318.15 K, x2 = 0.2032	66.1
318.15 K, x2 = 0.5002	25.15
318.15 K, x2 = 0.7009	10.13
323.15 K, x2 = 0.5002	21.5
323.15 K, x2 = 0.9013	2.638

CCCC[N+](C)(C)C.O=S(=O)([N-]S(=O)(=O)C(F)(F)F)C(F)(F)F + CC(O)CO
101 kPa
Conditions	viscosity [mPa·s]
323.15 K, x2 = 0	35.6
323.15 K, x2 = 0.8843	11.79
328.15 K, x2 = 0.1909	19.2
333.15 K, x2 = 0.3054	14.35
338.15 K, x2 = 0	22.1
338.15 K, x2 = 0.3054	12.44
338.15 K, x2 = 0.5274	9.87
338.15 K, x2 = 0.8149	7.45
343.15 K, x2 = 0	19.2
348.15 K, x2 = 0	16.81
348.15 K, x2 = 0.1909	11.32
348.15 K, x2 = 0.5274	7.89
348.15 K, x2 = 0.8149	5.76
353.15 K, x2 = 0.8149	5.53

CC(=O)[O-].CCCC[N+](CCCC)(CCCC)CCCC + CC(=O)O + O
303.15 K, 100 kPa
Conditions	viscosity [mPa·s]
x2 = 0, x3 = 0.0263	680
x2 = 0.0971, x3 = 0.0291	460
x2 = 0.194, x3 = 0.0301	297
x2 = 0.3213, x3 = 0.0263	169
x2 = 0.4883, x3 = 0.0234	83
x2 = 0.6588, x3 = 0.0167	41
x2 = 0.7897, x3 = 0.0128	25
x2 = 0.8911, x3 = 0.0099	19

C[C@@H](O)[C@H](N)C(=O)O + CCCC[n+]1ccn(C)c1.[Br-] + O
viscosity [mPa·s], 101.3 kPa
Conditions	x1 = 0.0003603, x2 = 0	x1 = 0.0007221, x2 = 0	x1 = 0.001078, x2 = 0	x1 = 0.001438, x2 = 0	x1 = 0.001779, x2 = 0	x1 = 0.002158, x2 = 0	x1 = 0.002516, x2 = 0
293.15 K	1.009	1.016	1.023	1.03	1.037	1.044	1.051
298.15 K	0.897	0.904	0.911	0.918	0.925	0.933	0.94
303.15 K	0.804	0.811	0.818	0.825	0.833	0.84	0.847
308.15 K	0.727	0.734	0.741	0.748	0.755	0.763	0.77
313.15 K	0.661	0.668	0.675	0.682	0.689	0.697	0.704

CCCCCC[n+]1ccn(C)c1.F[B-](F)(F)F + CCCCCC[n+]1ccn(C)c1.[Cl-]
101 kPa, x2 = 0
Conditions	electrical conductivity [S/m]	viscosity [mPa·s]
303 K	0.16	–
303.15 K	–	189
308 K	0.205	–
308.15 K	–	145
313 K	0.259	–
313.15 K	–	114
318 K	0.322	–
318.15 K	–	90
323 K	0.397	–
323.15 K	–	73
328 K	0.481	–
328.15 K	–	60
333 K	0.576	–
333.15 K	–	49

CC(C)=O + CCCC[n+]1ccn(C)c1.F[B-](F)(F)F
Conditions	electrical conductivity, 296.15 K [S/m]	viscosity, 303.15 K [mPa·s]	viscosity, 313.15 K [mPa·s]	viscosity, 323.15 K [mPa·s]
100 kPa, x2 = 0	–	0.303	0.276	0.255
101 kPa, x1 = 1	0.05	–	–	–
